TGI data for 13 compounds are collected here from PubChem BioAssay (NCI).

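Results reflect a 48-hour exposure of cells in 96-well plates to compound at five concentrations. TGI: concentration producing complete growth inhibition.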

What all share (assay): DTP human tumour cell line panel, 48 h
The subject of test [1] is M14 melanoma.
Test [2] relates to LOX IMVI melanoma.
Test [3] concerns NCI-H226 lung.
The test system of test [4] is DU-145 prostate.
The subject of test [5] is SF-539 CNS.
Test [6] relates to KM12 colon.
Test [7] has as its system SNB-75 CNS.
The test system of test [8] is SW-620 colon.
Test [9] relates to SF-295 CNS.
For test [10], the system named is MDA-MB-231 breast.

Take `O=C1C=CC(=O)C(CNc2ccc(C(=O)OCc3ccccc3)cc2)=C1`: the concentration for total growth inhibition (TGI) (as a rule, the concentration at which net growth stops) was found to be 20.8 µM in [1]; 17.8 µM in test [2]; 28 µM in test [3]; 25.1 µM in test [4]; 7.29 µM in test [5]; 23.4 µM in [6]. Moreover, the TGI stood at 18.4 µM in [7], 19.6 µM in test [8], 34.5 µM in test [9] and 24.9 µM in [10].

As to `CCOC(=O)c1sc2ncnc(N)c2c1C`, the TGI in test [1], in test [2], in [3], in [4], in [5] and in [6] was above 100 µM in each case. The TGI in [7], in test [8], in test [9] and in test [10] was above 100 µM throughout.

As for `Cc1cc(O)c(-c2cc(O)c(C)cc2O)cc1O`, the TGI in [1] stood at 22.9 µM; in test [2], 16.6 µM; in test [3], 46.4 µM; in [4] it was 28.5 µM; in [5] it was 9.35 µM; in test [6], 27.5 µM. Also, the TGI stood at 29 µM in test [7], 6 µM in test [8], 31.2 µM in test [9] and 33.3 µM in test [10].

As to `CC(=O)n1nc(-c2ccccc2)n(/N=C/c2ccc([N+](=O)[O-])o2)c1=O`, the TGI in test [1] is 4.08 µM; in test [2], 23.2 µM; in [3] it was above 19.8 µM; in [4] it was 16.7 µM; in [5], 18.4 µM; in [6] it was 36.4 µM. For the same compound, the TGI came to 26.8 µM in [7], 22.9 µM in test [8], 47.9 µM in test [9] and 17.1 µM in test [10].

Regarding `O=[N+]([O-])c1cc(Cl)ccc1Sc1ccccc1`, the TGI in test [1], in [2], in test [3], in [4], in [5] and in [6] was above 100 µM in each case. The TGI in test [7] is 87 µM; in test [8] it was above 100 µM; in test [9], above 100 µM; in [10], above 100 µM.

In the case of `Cc1cc(NS(=O)(=O)c2ccc(NC(NC(=O)C(C(F)(F)F)C(F)(F)F)(C(F)(F)F)C(F)(F)F)cc2)no1`, the TGI in test [1], in test [2], in test [3], in [4], in test [5] and in [6] was above 100 µM throughout. Besides, the TGI in [7], in test [8], in [9] and in test [10] was above 100 µM throughout.

In the case of `COC(=O)N1N=C(c2ccccc2)C1c1ccccc1` (stereo unspecified), the TGI in [1] was above 100 µM; in test [2] it was 82.8 µM; in test [3] it was 77.1 µM; in test [4] it was above 100 µM; in test [5], above 100 µM; in test [6], above 100 µM. Besides, the TGI in [7], in test [8] and in [10] was above 100 µM each time.

With `Nc1nc(Nc2ccccc2)sc1C(=O)c1ccco1`, the TGI in test [1] came out at 36.9 µM; in test [2], 42.8 µM; in test [3], 55.3 µM; in test [4], 40.8 µM; in test [5], 33.3 µM; in [6] it was 23.5 µM. Further, the TGI in test [7] came to 37.7 µM; in test [8], 67.4 µM; in test [10], 97.7 µM.

As for `C[C@H]1[C@H](C)CC[C@]2(C(=O)OC3OC(CO)C(O)C(O)C3O)CC[C@]3(C)C(=CC[C@@H]4[C@@]5(C)C[C@H]6OC(=O)c7cc(O)c(O)c(O)c7-c7c(cc(O)c(O)c7O)C(=O)O[C@@H]6C(CO)(CO)[C@@H]5CC[C@]43C)[C@H]12` (stereo partly specified), the TGI in test [1] was above 100 µM; in test [2] it was 34.5 µM; in [3] it was above 100 µM; in [4], above 100 µM; in test [5] it was above 100 µM; in [6] it was above 100 µM. Moreover, the TGI is above 100 µM in test [7], above 100 µM in test [8], above 100 µM in [9] and 33 µM in [10].

Take `Clc1nncc2sc(-c3ccccc3)nc12`: the TGI in [1] was 52.3 µM; in [2], 50.2 µM; in test [3] it was above 82.4 µM; in test [4] it was 31.8 µM; in test [5], 74.6 µM; in [6], above 72.8 µM. The TGI is above 64.1 µM in [7], 61.3 µM in test [8], above 77.4 µM in [9] and 56.1 µM in test [10].

As for `CC1(C)CC(C#Cc2ccccc2)CC(C)(C)N1O`, the TGI was determined as 38.2 µM in [1]; 29.9 µM in test [2]; 53.6 µM in test [3]; 41.9 µM in test [4]; 51.8 µM in test [5]; 36.1 µM in test [6]. Moreover, the TGI stood at 54.1 µM in [7], 50.5 µM in test [8], 35.1 µM in [9] and 29.8 µM in test [10].

Regarding `COc1cc([N+](=O)[O-])c(OC)c2c(Nc3ccc(S(=O)(=O)O)c4cc(S(=O)(=O)O)cc(S(=O)(=O)O)c34)cc(C)nc12`, the TGI in test [1], in test [2], in test [3], in test [4], in [5] and in test [6] was above 100 µM each time. Moreover, the TGI in test [7], in test [8] and in [10] was above 100 µM each time.

As for `COc1cc2[nH]c(-c3ccccc3)cc(=O)c2c(OC)c1OC`, the TGI in [1], in [2], in test [3], in test [4], in [6] and in test [7] was above 100 µM throughout. Also, the total growth inhibition concentration (TGI) in test [8], in test [9] and in test [10] was above 100 µM throughout.
